Experiments:
[1] = tested on: pathways (Reactome, KEGG, MouseCyc) in mouse tongue; experiment: Pathway enrichment analysis (ConsensusPathDB) of RNA-Seq data
Description: RNA-Seq analysis of mRNA transcriptome. Representative tongue samples were chosen for the RNA-Seq analysis: untreated (n=5), 4-NQO treatment group (n=3), 4N+B (n=4), 4N+C (n=4), and 4N+B+C (n=5). The extraction of total cellular RNA from mouse tissues was carried out using the RNeasy kit (Qiagen). Subsequent RNA preparation steps were carried out at the Genomics Resources Core Facility of WCMC. The measurement of RNA integrity was determined using the Agilent 2100 BioAnalyzer (Agilent Technologies). Samples with RNA integrity number (RIN) values of 10 were used to construct cDNA libraries. mRNA was purified by using pre-prepared Sera-mag Magnetic Oligo(dT) Beads from Illumina Inc. (SanDiego, Calif.), subjected to thermal fragmentation, and reverse transcribed to first strand cDNA. Following the removal of mRNA strands by RNaseH, first strand cDNAs were used as templates to produce double strand cDNAs, and the overhangs resulting from fragmentation were repaired to blunt ends. An ‘A’ base was added to the 3′ end of cDNAs and subsequently the cDNAs were ligated to Illumina paired end (PE) adaptors that have a single ‘T’ base overhang at their 3′ end. The cDNA-adaptor libraries were purified and enriched by 15 cycles of PCR. The enriched libraries were hybridized to a flow cell and amplified, resulting in ultra-high density flow cells with millions of clusters, each containing about 1,000 copies of the templates. The double stranded cDNA-adaptors were denatured and converted into single strand DNA, and then the template cDNAs were amplified one more time isothermally to produce surface-bound colonies. The clonal DNA clusters were linearized, free 3′ OH ends blocked, denatured, hybridized to sequencing primers, and sequenced. The sequencing was conducted by running 4 samples per lane with 51 pair-end cycles on the HISeq2000/1000. The Sequencing-by-Synthesis process used reversible terminators and a DNA polymerase modified to accept reversible terminator nucleotides. After each synthesis cycle the fluorescence of clusters was imaged with high sensitivity. Then the sequencing images were analyzed in three steps, image analysis, base calling, and sequence analysis. The Tophat software was used to align raw sequencing reads against the UCSC mm9 mouse reference genome, and Cufflinks software was employed to measure transcript abundances in the unit of fragments per kilobase of exon model per million mapped reads (FPKM), as well as to perform statistical analysis on the changes in gene expression. The heat maps for genes of interest were generated by R package software.

[2] = Consumption of drug containing drinking water and diet; type: in vivo, mouse; details: 4-NQO treated mice, 15 week post 4-NQO treatment
Excerpt: Drug treatments reduce tongue tumor development. All of the mice tolerated the 10 week 4-NQO treatment, and almost all of the mice survived the 15 week post 4-NQO treatment period (A). We determined that the CD1530 in the regular drinking water was stable for at least 7 days at room temperature by HPLC analysis (FIG. 7); thus, we decided to use drinking water as a delivery method because this method is effective and less laborious.

[3] = tested on: GO categories in mouse tongue; experiment: Gene ontology (GO) analysis of RNA-Seq data; type: in vivo; details: compared to the 4-NQO group
Description: Gene ontology (GO) analysis. Gene ontology (GO) analysis (p-value cutoff: 0.00001), using the ConsensusPathDB online tool, was conducted on the Gene Ontology level 3 of the “Biological Process” domain that has predefined, functional sets for enrichment analysis with default parameter settings.

[4] = tested on: MCT4; experiment: Immunohistochemistry of tongue epithelium: MCT4; type: in vivo, mouse; details: compared to the 4-NQO group; antibody staining
Excerpt: (§1) The tongues were fixed, embedded in paraffin, and sectioned. Then the tissue sections were stained with various antibodies (magnification, 200×). Four to five representative areas of each tongue section from two to four mice/group were photographed and analyzed (FIGS. 12A and 12B). Interleukin-6 (IL-6) is a multifunctional cytokine that is involved in the regulation of immune responses and cellular functions. IL-6 levels are enhanced in human oral squamous cell carcinoma and IL-6 is considered a bad prognostic factor in this cancer (Expert Opin Ther Targets. 2013 January; 17(1):53-9). IL-6 protein was detected primarily in the basal layer of tongue epithelium in the UNT samples (FIG. 12A, arrows), but in the 4-NQO treated samples we observed both an increase in the protein level and an expansion of IL-6 signal to the suprabasal layers of the tongue epithelium (FIG. 12A).

[5] = tested on: 4-hydroxynonenal (4-HNE), marker of oxidative stress; experiment: Immunohistochemistry of tongue epithelium: 4-HNE; type: in vivo, mouse; details: compared to the 4-NQO group; antibody staining
Description: (§2) Immunohistochemistry. Paraffin embedded tongue sections were stained with various antibodies (supporting information).
(§3) Immunohistochemistry. Paraffin-embedded sections (from two to four mice per group) were deparaffinized and rehydrated, and antigen retrieval was performed using an antigen unmasking solution (Vector Laboratories, H-3300). After quenching endogenous peroxidase with 3% H2O2, the tissue sections were blocked with the blocking reagent (from the M.O.M. kit from Vector Laboratories for 4-HNE) or 10% goat serum (Vector Laboratories). Then, tissue sections were incubated with a 4-HNE antibody (1:700; mouse monoclonal antibody; Abcam, ab48506), a β-catenin antibody (1:400; rabbit polyclonal antibody; Abcam, ab6302), or a MMP9 antibody (1:70; rabbit polyclonal antibody; Abcam, ab38898), respectively, overnight at 4° C. The sections were then incubated with secondary antibodies (1:200, anti-mouse IgG from the M.O.M kit for 4-1-INE; ready-to-use anti-rabbit IgG from the Invitrogen SuperPicture kit for β-catenin and MMP9). As a negative control, sections were stained without incubation with primary antibodies. The signals were visualized based on a peroxidase detection mechanism with 3,3-diaminobenzidine (DAB) used as the substrate. Four to five representative areas of each mouse tongue section from two to four mice per group were photographed and analyzed.

[6] = tested on: IL-6; experiment: Immunohistochemistry of tongue epithelium: IL-6; type: in vivo, mouse; details: compared to the 4-NQO group; antibody staining
Excerpt: as §1

[7] = Mouse serum triglyceride level measurements; type: in vivo; details: treatment for 15 weeks; compared to the UNT group
Description: Mouse serum triglyceride level measurements. Blood samples from the mice were obtained from mouse tails. The analysis of serum triglyceride levels was carried out at the Laboratory of Comparative Pathology of the Memorial Sloan-Kettering Cancer Center. UNT (n=4); 4-NQO (n=3); 4N+B (n=4); 4N+C (n=3), and 4N+B+C (n=4).

[8] = tested on: β-catenin; experiment: Immunohistochemistry of tongue epithelium: β-catenin; type: in vivo, mouse; details: compared to the 4-NQO group; antibody staining
Description: as §2, §3

[9] = tested on: mouse tongue mRNA transcriptome; experiment: RNA-Seq analysis of the mRNA transcriptome of mouse tongues; type: in vivo; details: compared to the 4-NQO group
Description: RNA-Seq analysis of the mRNA transcriptome. One part of each mouse tongue (same position on each mouse tongue) was snap frozen in liquid N2 and stored at −70° C. until total RNA extraction. Total tissue RNA was extracted and subjected to Next-Generation Sequencing (RNA-Seq) at the Genomics Resources Core Facility, Weill Cornell Medical College. Bioinfomatics analyses were performed using the Tophat and Cufflink software. (supporting information).
RNA-Seq analysis of mRNA transcriptome. […] The GEO Accession number is GSE54246; embargoed until publication.

[10] = tested on: tongue lesions (4-NQO induced oral cavity carcinogenesis); experiment: 4-NQO mouse oral cavity carcinogenesis model: gross tongue lesion number and severity
[11] = down-regulated vs. 4-NQO group, KEGG
[12] = down-regulated vs. 4-NQO group, Reactome
[13] = upregulated vs. 4-NQO group, KEGG

For C=C(c1ccc(C(=O)O)cc1)c1cc2c(cc1C)C(C)(C)CCC2(C)C [bexarotene], the “candidates contained, pathway Cell cycle-Mus musculus (mouse)” value [1, 11] was 19 (15.0%), the “candidates contained, pathway Complement and coagulation cascades-Mus musculus (mouse)” value [1, 11] was 21 (27.6%) and the “candidates contained, pathway Retinol metabolism-Mus musculus (mouse)” value [1, 11] was 14 (17.7%). The “candidates contained, pathway Activation of ATR in response to replication stress” value [1, 12] was 10 (26.3%), the “candidates contained, pathway Activation of the pre-replicative complex” value [1, 12] was 9 (31.0%) and the “candidates contained, pathway Cell Cycle” value [1, 12] was 46 (15.1%). The “candidates contained, pathway Cell Cycle Checkpoints” value [1, 12] was 16 (20.8%), the “candidates contained, pathway Cell Cycle, Mitotic” value [1, 12] was 44 (16.4%) and the “candidates contained, pathway Common Pathway” value [1, 12] was 6 (46.2%). The “candidates contained, pathway DNA Replication” value [1, 12] was 34 (21.7%), the “candidates contained, pathway DNA Replication Pre-Initiation” value [1, 12] was 10 (27.8%) and the “candidates contained, pathway Formation of Fibrin Clot (Clotting Cascade)” value [1, 12] was 10 (29.4%). For the same compound, the “candidates contained, pathway G1/S Transition” value [1, 12] was 12 (19.4%), the “candidates contained, pathway G2/M Checkpoints” value [1, 12] was 13 (28.9%) and the “candidates contained, pathway HDL-mediated lipid transport” value [1, 12] was 7 (41.2%). For the same compound, the “candidates contained, pathway Hemostasis” value [1, 12] was 37 (12.3%), the “candidates contained, pathway Lipid digestion, mobilization, and transport” value [1, 12] was 11 (22.4%) and the “candidates contained, pathway Lipoprotein metabolism” value [1, 12] was 11 (35.5%). The “candidates contained, pathway M Phase” value [1, 12] was 22 (22.2%), the “candidates contained, pathway M/G1 Transition” value [1, 12] was 10 (27.8%) and the “candidates contained, pathway Metabolism of amino acids and derivatives” value [1, 12] was 21 (16.9%). The “candidates contained, pathway Mitotic G1-G1/S phases” value [1, 12] was 14 (19.2%), the “candidates contained, pathway Mitotic M-M/G1 phases” value [1, 12] was 32 (23.7%) and the “candidates contained, pathway Mitotic Prometaphase” value [1, 12] was 21 (22.1%). The “candidates contained, pathway Phenylalanine and tyrosine catabolism” value [1, 12] was 5 (62.5%), the “candidates contained, pathway Platelet degranulation” value [1, 12] was 15 (23.4%) and the “candidates contained, pathway Response to elevated platelet cytosolic Ca2+” value [1, 12] was 15 (21.4%). The “candidates contained, pathway Calcium signaling pathway-Mus musculus (mouse)” value [1, 13] was 15 (8.4%), the “candidates contained, pathway Gastric acid secretion-Mus musculus (mouse)” value [1, 13] was 10 (13.7%) and the “consumption of drug containing diet vs regular diet” value [2] was “comparable”. For the same compound, the “GO categories related to cell cycle, DNA replication, and mitosis” value [3] was “most under-expressed”, the “MCT4 protein levels in the tongue epithelium” value [4] was “lower MCT4 protein levels” and the “4-HNE levels in tongue samples” value [5] was “lower”. For the same compound, the “IL-6 protein levels in the tongue epithelium” value [6] was “lower IL-6 protein levels”, the serum triglyceride levels [7] was “did not change serum triglyceride levels significantly” and the “β-catenin protein levels in the tongue epithelium” value [8] was “lower β-catenin protein levels”. For the same compound, the “transcript levels of DNA replication genes (MCM 2-7 and 10, DNA2, LIG1, ORC1, POLA1, PRIM2)” value [9] was “significantly lower transcript levels of the majority of these genes”, the “number of genes with decreased transcript levels” value ([9]; p<0.05) was 614 and the “number of genes with increased transcript levels” value ([9]; p<0.05) was 436. For the same compound, the “number of genes with significantly different transcript levels” value ([9]; p<0.05) was 1050, the “number of tongue lesions (gross tongue lesion multiplicity)” value ([10]; C57BL/6 female mice, 4-NQO 10 weeks, then drug in 15 week post 4-NQO period, bexarotene 300 mg/kg diet, CD1530 […]100 ml drinking water, 4-NQO group 5.9±3.2) was 5.3±1.4 and the “average severity of tongue lesions (grade 0-4)” value ([10]; same model, 4-NQO group 2.8±0.8) was 1.9±1.2. The “lesions at grade 1” value ([10]; same model, 4-NQO group all lesions at or greater than grade 2) was 50%.

Source: patent publication US10265378B2, “Combination therapy for head and neck cancer” (Cornell University, priority 2014, dated 2019)
